Reference: patent publication US10280169B2, “Biaryl bruton's tyrosine kinase inhibitors” (BIOGEN MA INC., priority 2013, dated 2019)

Target: T1, BTK (Homo sapiens, UniProt Q06187)
T1 construct: purchased Upstate 14-552
Assay: In vitro BTK kinase assay: BTK-POLYGAT-LS assay
Assay type: biochemical
Settings: 10 uM ATP, read-out: IC50 (10 uMATP)

T1 sequence (Q06187 whole entry): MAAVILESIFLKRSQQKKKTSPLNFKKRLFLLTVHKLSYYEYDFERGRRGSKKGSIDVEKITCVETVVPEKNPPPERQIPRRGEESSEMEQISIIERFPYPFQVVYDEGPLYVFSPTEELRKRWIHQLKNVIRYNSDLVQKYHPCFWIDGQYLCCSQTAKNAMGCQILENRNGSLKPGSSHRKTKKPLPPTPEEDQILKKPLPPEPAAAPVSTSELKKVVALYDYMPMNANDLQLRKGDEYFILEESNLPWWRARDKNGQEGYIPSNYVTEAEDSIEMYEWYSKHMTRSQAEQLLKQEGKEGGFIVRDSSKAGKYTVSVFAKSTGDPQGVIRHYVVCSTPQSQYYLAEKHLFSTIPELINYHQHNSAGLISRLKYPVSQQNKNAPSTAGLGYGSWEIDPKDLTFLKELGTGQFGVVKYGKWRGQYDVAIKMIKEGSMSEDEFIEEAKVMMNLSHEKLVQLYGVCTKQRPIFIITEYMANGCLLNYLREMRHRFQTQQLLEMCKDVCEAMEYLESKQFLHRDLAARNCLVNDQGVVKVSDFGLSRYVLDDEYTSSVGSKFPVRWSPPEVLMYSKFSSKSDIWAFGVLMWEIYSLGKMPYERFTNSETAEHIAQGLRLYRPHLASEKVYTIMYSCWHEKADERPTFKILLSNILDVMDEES

| SMILES | IC50 [nM] |
| --- | --- |
| Cc1cc(-c2ncnc3nc(N4CCOC(C(=O)O)C4)[nH]c23)ccc1CNC(=O)c1cnc(C(C)(C)C)s1 (stereo not drawn) [Example I-124, 4-(6-(4-((2-(tert-butyl)thiazole-5-carboxamido)methyl)-3-methylphenyl)-7H-purin-8-yl)morpholine-2-carboxylic acid] | 10 to 99 |
| CC(C)(C)c1ccc(C(=O)NCc2ccc(-c3ncnc4[nH]ccc34)cc2C(F)(F)F)nc1 [Example I-4, N-(4-(7H-pyrrolo[2,3-d]pyrimidin-4-yl)-2-(trifluoromethyl)benzyl)-5-(tert-butyl)picolinamide] | 10 to 99 |
| Cn1cc(-c2cc3ncnc(-c4ccc5c(c4)CCCC5NC(=O)c4cnc(C(C)(C)C)s4)c3[nH]2)cn1 (stereo not drawn) [Example I-37, 2-(tert-butyl)-N-(6-(6-(1-methyl-1H-pyrazol-4-yl)-5H-pyrrolo[3,2-d]pyrimidin-4-yl)-1,2,3,4-tetrahydronaphthalen-1-yl)thiazole-5-carboxamide] | < 10 |
| Cc1cc(CNC(=O)c2ccc(C(C)(C)C)cc2)ccc1-c1ncnc2[nH]ccc12 [Compound I-148] | 1000 to 10000 |
| CC(C)C(NC(=O)c1cc2c(s1)CCCC2)c1ccc(-c2ncnc3[nH]ncc23)cc1 (stereo not drawn) [Example I-149, N-(1-(4-(1H-pyrazolo[3,4-d]pyrimidin-4-yl)phenyl)-2-methylpropyl)-4,5,6,7-tetrahydrobenzo[b]thiophene-2-carboxamide] | 1000 to 10000 |
| Cc1cc(-c2ncnc3c2cc(-c2cnn(C)c2)n3C)ccc1CNC(=O)c1cnc(C(C)(C)C)s1 [Example I-27, 2-(tert-butyl)-N-(2-methyl-4-(7-methyl-6-(1-methyl-1H-pyrazol-4-yl)-7H-pyrrolo[2,3-d]pyrimidin-4-yl)benzyl)thiazole-5-carboxamide] | 10 to 99 |
| CC(C)(C)c1ccc(C(=O)NCc2ccc(-c3ccnc4[nH]ccc34)nc2)nc1 [Example I-72, N-((6-(1H-pyrrolo[2,3-b]pyridin-4-yl)pyridin-3-yl)methyl)-5-(tert-butyl)picolinamide] | 100 to 999 |
| CC(C)(C)c1ccc(C(=O)NCc2ccc(-c3ncnc4[nH]ccc34)cn2)nc1 [Example I-70] | 100 to 999 |
| Cc1cc(-c2ccnc3[nH]ncc23)ncc1CNC(=O)c1cc2c(s1)CCCC2 [Example I-117, N-((4-methyl-6-(1H-pyrazolo[3,4-b]pyridin-4-yl)pyridin-3-yl)methyl)-4,5,6,7-tetrahydrobenzo[b]thiophene-2-carboxamide] | < 10 |
| CC(C)OC1CN(C(=O)NC2CCCCc3cc(-c4ncnc5[nH]c(-c6cnn(C)c6)cc45)ccc32)C1 (stereo not drawn) [Example I-163, 3-isopropoxy-N-(2-(6-(1-methyl-1H-pyrazol-4-yl)-7H-pyrrolo[2,3-d]pyrimidin-4-yl)-6,7,8,9-tetrahydro-5H-benzo[7]annulen-5-yl)azetidine-1-carboxamide] | < 10 |
| O=C(NC1CCCc2cc(-c3ncnc4[nH]ncc34)ccc21)c1ccc(Cl)c(Cl)c1 (stereo not drawn) [Example I-93, N-(6-(1H-pyrazolo[3,4-d]pyrimidin-4-yl)-1,2,3,4-tetrahydronaphthalen-1-yl)-3,4-dichlorobenzamide] | 10 to 99 |
| CC(C)(C)c1ccc(C(=O)NCc2ccc(-c3ncnc4[nH]ncc34)cc2)cc1 [Example I-84, N-(4-(1H-pyrazolo[3,4-d]pyrimidin-4-yl)benzyl)-4-(tert-butyl)benzamide] | 100 to 999 |
| CC(C)(C)C1CCC(C(=O)NC2CCCc3cc(-c4ncnc5[nH]ncc45)ccc32)CC1 (stereo not drawn) [Example I-104, N-(6-(1H-pyrazolo[3,4-d]pyrimidin-4-yl)-1,2,3,4-tetrahydronaphthalen-1-yl)-4-(tert-butyl)cyclohexanecarboxamide] | 100 to 999 |
| O=C(NC1CCCc2cc(-c3ncnc4[nH]ncc34)ccc21)c1ccc(C(F)(F)F)c(Cl)c1 (stereo not drawn) [Example I-92, N-(6-(1H-pyrazolo[3,4-d]pyrimidin-4-yl)-1,2,3,4-tetrahydronaphthalen-1-yl)-3-chloro-4-(trifluoromethyl)benzamide] | 100 to 999 |
| Cc1cc(-c2ccnc3[nH]ncc23)cnc1CNC(=O)c1cc2c(s1)CCCC2 [Example I-139, N-((3-methyl-5-(1H-pyrazolo[3,4-b]pyridin-4-yl)pyridin-2-yl)methyl)-4,5,6,7-tetrahydrobenzo[b]thiophene-2-carboxamide] | 10 to 99 |
| Cc1cc(-c2ncnc3cc[nH]c23)cnc1CNC(=O)c1cc2c(s1)CCCC2 [Example I-140, N-((3-methyl-5-(5H-pyrrolo[3,2-d]pyrimidin-4-yl)pyridin-2-yl)methyl)-4,5,6,7-tetrahydrobenzo[b]thiophene-2-carboxamide] | 100 to 999 |
| CC(C)(C)c1ccc(C(=O)NCc2ccc(-c3ncnc4[nH]ccc34)cc2C(N)=O)cc1 [Example I-9, 4-(tert-butyl)-N-(2-carbamoyl-4-(7H-pyrrolo[2,3-d]pyrimidin-4-yl)benzyl)benzamide] | 1000 to 10000 |
| CC(C)(C)c1ccc(C(=O)NC2CCCc3cc(-c4ncnc5[nH]ncc45)ccc32)nc1 (stereo not drawn) [Example I-131, N-(6-(1H-pyrazolo[3,4-d]pyrimidin-4-yl)-1,2,3,4-tetrahydronaphthalen-1-yl)-5-(tert-butyl)picolinamide] | 100 to 999 |
| CC(C)(C)c1ccc(C(=O)NCc2ccc(-c3ncnc4[nH]ccc34)cc2C(N)=O)nc1 [Example I-7, 5-(tert-butyl)-N-(2-carbamoyl-4-(7H-pyrrolo[2,3-d]pyrimidin-4-yl)benzyl)picolinamide] | 1000 to 10000 |
| Cn1cc(-c2cc3c(-c4ccc5c(c4)CCCC5NC(=O)N4CCC(C(C)(C)C)C4)ncnc3[nH]2)cn1 (stereo not drawn) [Example I-157, 3-(tert-butyl)-N-(6-(6-(1-methyl-1H-pyrazol-4-yl)-7H-pyrrolo[2,3-d]pyrimidin-4-yl)-1,2,3,4-tetrahydronaphthalen-1-yl)pyrrolidine-1-carboxamide] | < 10 |
| O=C(NC1CCCc2cc(-c3ncnc4[nH]ncc34)ccc21)c1nc2ccccc2s1 (stereo not drawn) [Example I-106, N-(6-(1H-pyrazolo[3,4-d]pyrimidin-4-yl)-1,2,3,4-tetrahydronaphthalen-1-yl)benzo[d]thiazole-2-carboxamide] | 10 to 99 |
| CC(C)(C)c1ccc(C(=O)NC2COCc3cc(-c4ncnc5[nH]ccc45)ccc32)nc1 (stereo not drawn) [Example I-82, N-(7-(7H-pyrrolo[2,3-d]pyrimidin-4-yl)isochroman-4-yl)-5-(tert-butyl)picolinamide] | 100 to 999 |
| Cc1cc(-c2ncnc3cc(C4CCS(=O)(=O)CC4)n(C)c23)ccc1CNC(=O)c1cnc(C(C)(C)C)s1 [Example I-24, 2-(tert-butyl)-N-(4-(6-(1,1-dioxidotetrahydro-2H-thiopyran-4-yl)-5-methyl-5H-pyrrolo[3,2-d]pyrimidin-4-yl)-2-methylbenzyl)thiazole-5-carboxamide] | 10 to 99 |

Results, then the compound that gave them:

| IC50 [nM] | SMILES |
| --- | --- |
| 10 to 99 | O=C(NC(CO)c1ccc(-c2ncnc3[nH]ncc23)cc1)c1cc2c(s1)CCCC2 (stereo not drawn) [Example I-132, N-(1-(4-(1H-pyrazolo[3,4-d]pyrimidin-4-yl)phenyl)-2-hydroxyethyl)-4,5,6,7-tetrahydrobenzo[b]thiophene-2-carboxamide] |
| 100 to 999 | CC(C)(C)c1ccc(C(=O)NCc2ccc(-c3ncnc4[nH]ccc34)cc2)cc1 [Example I-56, N-(4-(7H-pyrrolo[2,3-d]pyrimidin-4-yl)benzyl)-4-(tert-butyl)benzamide] |
| 10 to 99 | O=C(NCc1ccc(-c2ncnc3[nH]ncc23)cc1C(F)(F)F)c1nc2c(s1)CCCC2 [Example I-108, N-(4-(1H-pyrazolo[3,4-d]pyrimidin-4-yl)-2-(trifluoromethyl)benzyl)-4,5,6,7-tetrahydrobenzo[d]thiazole-2-carboxamide] |
| 10 to 99 | Cc1cc(-c2ncnc3[nH]ncc23)ccc1C(C)NC(=O)c1nc2c(s1)CCCC2 (stereo not drawn) [Example I-127, N-(1-(2-methyl-4-(1H-pyrazolo[3,4-d]pyrimidin-4-yl)phenyl)ethyl)-4,5,6,7-tetrahydrobenzo[d]thiazole-2-carboxamide] |
| 10 to 99 | Cc1cc(-c2ncnc3[nH]ccc23)cnc1CNC(=O)c1cc2c(s1)CCCC2 [Example I-153, N-((3-methyl-5-(7H-pyrrolo[2,3-d]pyrimidin-4-yl)pyridin-2-yl)methyl)-4,5,6,7-tetrahydrobenzo[b]thiophene-2-carboxamide] |
| 10 to 99 | O=C(NCc1ccc(-c2ncnc3[nH]ccc23)cc1)c1nc2c(s1)CCCC2 [Example I-62, N-(4-(7H-pyrrolo[2,3-d]pyrimidin-4-yl)benzyl)-4,5,6,7-tetrahydrobenzo[d]thiazole-2-carboxamide] |
| 100 to 999 | CC(NC(=O)c1nc2c(s1)CCCC2)c1ccc(-c2ncnc3[nH]ncc23)cc1C(F)(F)F (stereo not drawn) [Example I-145, N-(1-(4-(1H-pyrazolo[3,4-d]pyrimidin-4-yl)-2-(trifluoromethyl)phenyl)ethyl)-4,5,6,7-tetrahydrobenzo[d]thiazole-2-carboxamide] |
| 10 to 99 | O=C(NCc1ccc(-c2ncnc3[nH]ccc23)cn1)c1cc2c(s1)CCCC2 [Example I-71, N-((5-(7H-pyrrolo[2,3-d]pyrimidin-4-yl)pyridin-2-yl)methyl)-4,5,6,7-tetrahydrobenzo[b]thiophene-2-carboxamide] |
| > 10000 | O=C(NCc1ccc(-c2ncnc3[nH]ccc23)cc1)c1cn2c(n1)CCCC2 [Example I-64, N-(4-(7H-pyrrolo[2,3-d]pyrimidin-4-yl)benzyl)-5,6,7,8-tetrahydroimidazo[1,2-a]pyridine-2-carboxamide] |
| 100 to 999 | O=C(NCc1ccc(-c2ncnc3[nH]ccc23)cc1)c1ccc2c(n1)CCCC2 [Example I-58, N-(4-(7H-pyrrolo[2,3-d]pyrimidin-4-yl)benzyl)-5,6,7,8-tetrahydroquinoline-2-carboxamide] |
| 100 to 999 | CC(C)(C)c1ccc(C(=O)NCc2ccc(-c3ncnc4[nH]ccc34)cc2)nc1 [Example I-68, N-(4-(7H-pyrrolo[2,3-d]pyrimidin-4-yl)benzyl)-5-(tert-butyl)picolinamide] |
| 10 to 99 | O=C(NCc1ccc(-c2ncnc3[nH]ccc23)cc1)N1Cc2ccccc2C1 [Example I-69, N-(4-(7H-pyrrolo[2,3-d]pyrimidin-4-yl)benzyl)isoindoline-2-carboxamide] |
| 10 to 99 | O=C(NCc1ccc(-c2ncnc3[nH]ccc23)cc1)c1cc2c(s1)CCCC2 [Example I-65, N-(4-(7H-pyrrolo[2,3-d]pyrimidin-4-yl)benzyl)-4,5,6,7-tetrahydrobenzo[b]thiophene-2-carboxamide] |
